According to patent US6462060B2, “Heterocyclic-hydroxyimino-fluorene nuclei compounds and pharmaceutical compositions for inhibiting protein kinases, and methods for their use” (Agouron Pharmaceuticals, Inc., priority 2000, dated 2002):
pIC50, pKi: −log10 of the molar value.

Key:
CHK-1 KH289 = target: T1, CHK-1 KH289 (Homo sapiens, UniProt O14757); assay: CHK-1 assay (coupled spectrophotometric, Syntide-2); assay type: biochemical; conditions: 10 nM CHK-1 KH289, 0.15 mM ATP
T1 construct: CHK-1 KH289 contains residues 1-289 of human CHK-1; 6xHis (C); made in house; host or cells: baculovirus/insect cell system
T1 sequence (O14757 1-289): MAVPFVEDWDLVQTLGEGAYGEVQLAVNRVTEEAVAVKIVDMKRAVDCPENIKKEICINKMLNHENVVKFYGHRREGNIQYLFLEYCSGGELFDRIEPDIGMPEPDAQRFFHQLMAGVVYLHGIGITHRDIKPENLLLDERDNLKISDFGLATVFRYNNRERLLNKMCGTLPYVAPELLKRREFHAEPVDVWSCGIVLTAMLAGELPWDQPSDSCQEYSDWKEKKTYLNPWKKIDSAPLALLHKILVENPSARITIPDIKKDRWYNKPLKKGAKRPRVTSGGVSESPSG
Text: CHK-1 KH289 contains residues 1-289 of human CHK-1 including the kinase domain. It contains 6 histidine residues (6×His-tag) at the C-terminus of residue 289. The protein was expressed in a baculovirus/insect cell system and purified by conventional chromatographic techniques.
(§1) The production of ADP from ATP that accompanies phosphoryl transfer to the synthetic substrate peptide Syntide-2 ([…]) was coupled to oxidation of NADH using phosphoenolpyruvate (PEP) through the actions of pyruvate kinase (PK) and lactic dehydrogenase (LDH). The oxidation of NADH was monitored by following the decrease of absorbance at 340 nm (ε340=6.22 cm^−1 mM^−1) using a HP8452 spectrophotometer. Typical reaction solutions contained: 4 mM PEP; 0.15 mM NADH; 28 units of LDH/ml; 16 units of PK/ml; 3 mM DTT; 0.125 mM Syntide2Σ; 0.15 mM ATP; 25 mM MgCl2 in 50 mM TRIS, pH 7.5; and 400 mM NaCl. Assays were initiated with 10 nM of CHK-1 KH289. Ki values were determined by measuring initial enzyme activity in the presence of varying concentrations of test compounds. The data were analyzed using Enzyme Kinetic and Kaleidagraph software.

CDK4/Cyclin D3 complex = target: T2, CDK4/Cyclin D3 complex (Homo sapiens, UniProt P11802); assay: CDK4/Cyclin D assay (32P incorporation into Rb fragment); assay type: biochemical; conditions: apparent Ki; 50 nM CDK4/Cyclin D3 complex, 25 μM ATP
T2 construct: made in house; host or cells: insect cells co-infected with baculovirus expression vectors
T2 sequence (P11802 whole entry, the tested form may be a part): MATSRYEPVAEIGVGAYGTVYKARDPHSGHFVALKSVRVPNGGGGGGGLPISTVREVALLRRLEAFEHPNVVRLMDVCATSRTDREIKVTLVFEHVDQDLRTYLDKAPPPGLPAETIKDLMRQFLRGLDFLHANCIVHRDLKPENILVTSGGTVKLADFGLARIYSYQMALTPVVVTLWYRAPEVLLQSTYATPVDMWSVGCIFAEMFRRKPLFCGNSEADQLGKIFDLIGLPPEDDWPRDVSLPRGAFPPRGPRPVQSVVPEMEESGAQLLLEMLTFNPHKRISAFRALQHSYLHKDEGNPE
T2 sequence (P30281 whole entry partner, the tested form may be a part): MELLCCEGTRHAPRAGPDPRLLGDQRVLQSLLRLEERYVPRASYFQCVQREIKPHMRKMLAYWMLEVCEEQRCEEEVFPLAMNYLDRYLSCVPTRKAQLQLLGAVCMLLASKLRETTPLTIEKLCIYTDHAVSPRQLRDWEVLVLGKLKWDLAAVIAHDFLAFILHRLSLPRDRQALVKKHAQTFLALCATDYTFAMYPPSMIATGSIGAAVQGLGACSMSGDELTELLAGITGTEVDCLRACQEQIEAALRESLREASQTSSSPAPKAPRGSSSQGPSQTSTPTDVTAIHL
Description: CDK4/Cyclin D Construct for Assay: A complex of human CDK4 and cyclin D3, or a complex of cyclin D1 and a fusion protein of human CDK4 and glutathione-S-transferase (GST-CDK4), was purified using traditional biochemical chromatographic techniques from insect cells that had been co-infected with the corresponding baculovirus expression vectors.
(§2) CDK2/Cyclin A and CDK4/Cyclin D Assays
Cyclin-dependent kinase activity was measured by quantifying the enzyme-catalyzed, time-dependent incorporation of radioactive phosphate from [^32P]ATP into a recombinant fragment of the retinoblastoma protein. Unless noted otherwise, assays were performed in 96-well plates in a total volume of 50 μL, in the presence of 10 mM HEPES (N-[2-hydroxyethyl]piperazine-N′-[2-ethanesulfonic acid]) (pH 7.4), 10 mM MgCl2, 25 μM adenosine triphosphate (ATP), 1 mg/mL ovalbumin, 5 μg/mL leupeptin, 1 mM dithiothreitol, 10 mM β-glycerophosphate, 0.1 mM sodium vanadate, 1 mM sodium fluoride, 2.5 mM ethylene glycol-bis(β-aminoethyl ether)-N,N,N′N′-tetraacetic acid (EGTA), 2% (v/v) dimethylsulfoxide, and 0.03-0.2 μCi [^32P]ATP. The substrate (0.3-0.5 μg) was purified recombinant retinoblastoma protein fragment (Rb) (residues 386-928 of the native retinoblastoma protein; 62.3 kDa, containing the majority of the phosphorylation sites found in the native 1 06kDa protein, as well as a tag of six histidine residues for ease of purification). Reactions were initiated with CDK2 (150 nM CDK2/Cyclin A complex) or CDK4 (50 nM CDK4/Cyclin D3 complex), incubated at 30° C., and terminated after 20 minutes by the addition of ethylenediaminetetraacetic acid (EDTA) to 250 mM. The phosphorylated substrate was then captured on a nitrocellulose membrane using a 96-well filtration manifold, and unincorporated radioactivity was removed by repeated washing with 0.85% phosphoric acid. Radioactivity was quantified by exposing the dried nitrocellulose membranes to a phosphorimager. Apparent Ki values were measured by assaying enzyme activity in the presence of different compound concentrations and subtracting the background radioactivity measured in the absence of enzyme. The kinetic parameters (kcat, Km for ATP) were measured for each enzyme under the usual assay conditions by determining the dependence of initial rates on ATP concentration. The data were fit to an equation for competitive inhibition using Kaleidagraph (Synergy Software), or were fit to an equation for competitive tight-binding inhibition using the software KineTic (BioKin, Ltd.). The specific activity of CDK4 was the same whether complexed to full-length cyclin D3 or the truncated Cyclin D3 construct; both complexes also yielded very similar Ki values for selected inhibitors.

[1] = target: T3, phosphorylated VEGF-R2Δ50 (FLVK-P) (Homo sapiens, UniProt P35968, DEL940-989/E990V); assay: VEGF-R2 coupled spectrophotometric (FLVK-P) assay; assay type: biochemical; conditions: phosphorylated VEGF-R2Δ50, 1 mM ATP
T3 construct: VEGF-R2Δ50 contains residues 806-939 and 990-1171; made in house; host or cells: baculovirus/insect cell system
T3 sequence (P35968 with tags, fused parts or gaps DEL940-989/E990V limits assumed): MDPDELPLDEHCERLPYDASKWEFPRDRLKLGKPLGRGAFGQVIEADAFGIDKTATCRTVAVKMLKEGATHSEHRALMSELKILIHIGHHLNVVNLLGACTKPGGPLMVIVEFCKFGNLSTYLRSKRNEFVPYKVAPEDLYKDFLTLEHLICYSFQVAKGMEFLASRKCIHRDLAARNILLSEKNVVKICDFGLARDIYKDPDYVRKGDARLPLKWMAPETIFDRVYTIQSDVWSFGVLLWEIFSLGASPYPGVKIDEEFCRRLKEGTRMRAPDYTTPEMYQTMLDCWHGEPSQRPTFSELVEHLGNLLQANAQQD
Text: VEGF-R2 Construct for Assay: A construct (VEGF-R2Δ50) of the cytosolic domain of human vascular endothelial growth factor receptor 2 (VEGF-R2) lacking the 50 central residues of the 68 residues of the kinase insert domain was expressed in a baculovirus/insect cell system. Of the 1356 residues of full-length VEGF-R2, VEGF-R2Δ50 contains residues 806-939 and 990-1171, and also one point mutation (E990V) within the kinase insert domain relative to wild-type VEGF-R2. See McTigue et al., Structure, 7, 319-330 (1999); U.S. patent application Ser. No. 09/390,326, filed Sep. 7, 1999. Autophosphorylation of the purified construct was performed by incubation of the enzyme at a concentration of 4 μM in the presence of 3 mM ATP and 40 mM MgCl2 in 100 mM Hepes, pH 7.5, containing 5% glycerol and 5 mM DTT, at 4° C. for 2 h. […] See Parast et al., Biochemistry, 37, 16788-16801 (1998).
Coupled Spectrophotometric (FLVK-P) Assay
The production of ADP from ATP that accompanies phosphoryl transfer was coupled to oxidation of NADH using phosphoenolpyruvate (PEP) and a system having pyruvate kinase (PK) and lactic dehydrogenase (LDH). The oxidation of NADH was monitored by following the decrease of absorbance at 340 nm (e340=6.22 cm^−1 mM^−1) using a Beckman DU 650 spectrophotometer. Assay conditions for phosphorylated VEGF-R2Δ50 (indicated as FLVK-P in the tables below) were the following: 1 mM PEP; 250 μM NADH; 50 units of LDH/mL; 20 units of PK/mL; 5 mM DTT; […]; 1 mM ATP; and 25 mM MgCl2 in 200 mM Hepes, pH 7.5. Assay conditions for unphosphorylated VEGF-R2Δ50 (indicated as FLVK in the tables) were the following: 1 mM PEP; 250 ,M NADH; 50 units of LDH/mL; 20 units of PK/mL; 5 mM DTT; 20 mM poly(E4Y1); 3 mM ATP; and 60 mM MgCl2 and 2 mM MnCl2 in 200 mM Hepes, pH 7.5. Assays were initiated with 5 to 40 nM of enzyme. Ki values were determined by measuring enzyme activity in the presence of varying concentrations of test compounds. The data were analyzed using Enzyme Kinetic and Kaleidagraph software.

HCT 116 cells = assay: Inhibition of cell growth, MTT assay, HCT 116; assay type: cell-based; conditions: Homo sapiens, HCT-116, 144 h, four to six days incubation
Description: (§3) Inhibition of Cell Growth: Assessment of Anti-proliferation with U2-OS, SAOS2, HCT116 Cancer Cell Lines
(§4) Inhibition of cell growth was measured using the tetrazolium salt assay, which is based on the ability of viable cells to reduce 3-(4,5-dimethylthiazol-2-yl)-2,5-[2H]-diphenyltetrazolium bromide (MTT) to formazan (Mossman, J. Immunological Methods, 65, 55-58 (1983)). The water-insoluble purple formazan product was then detected spectrophotometrically. The HCT 116, U2-OS, and SAOS 2 cell lines were each grown in 96-well plates, respectively. Cells were plated in the appropriate medium at a volume of 135 μL/well in McCoy's 5A Medium. Plates were incubated for 4 h before addition of inhibitor compounds.
(§5) Different concentrations of inhibitor compounds were added in 0.5% (v/v) dimethylsulfoxide (μL/well), and cells were incubated at 37° C. (5% CO2) for four to six days (depending on cell type). At the end of the incubation, MTT was added to a final concentration of 0.2 mg/mL, and cells were incubated for 4 h more at 37° C. After centrifugation of the plates and removal of medium, the absorbance of the formazan (solubilized in dimethylsulfoxide) was measured at 540 nm. The concentration of inhibitor compound causing 50% inhibition of growth was determined from the linear portion of a semi-log plot of inhibitor concentration versus percentage inhibition. […]

CDK2/Cyclin A complex = CDK2/Cyclin A complex (Homo sapiens, UniProt P24941); assay: CDK2/Cyclin A assay (32P incorporation into Rb fragment); assay type: biochemical; conditions: apparent Ki; 150 nM CDK2/Cyclin A complex, 25 μM ATP
Text: CDK2/Cyclin A Construct for Assay: CDK2 was purified using published methodology (Rosenblatt et al., J. Mol. Biol., 230, 1317-1319 (1993)) from insect cells that had been infected with a baculovirus expression vector. Cyclin A was purified from E. coli cells expressing full-length recombinant cyclin A, and a truncated cyclin A construct was generated by limited proteolysis and purified as described previously (Jeffrey et al., Nature, 376, 313-320 (1995)).
as §2
Cyclin-dependent kinase activity was measured by quantifying the enzyme-catalyzed, time-dependent incorporation of radioactive phosphate from [^32P]ATP into a recombinant fragment of the retinoblastoma protein. […] The phosphorylated substrate was then captured on a nitrocellulose membrane using a 96-well filtration manifold, and unincorporated radioactivity was removed by repeated washing with 0.85% phosphoric acid. Radioactivity was quantified by exposing the dried nitrocellulose membranes to a phosphorimager. Apparent Ki values were measured by assaying enzyme activity in the presence of different compound concentrations and subtracting the background radioactivity measured in the absence of enzyme. The kinetic parameters (kcat, Km for ATP) were measured for each enzyme under the usual assay conditions by determining the dependence of initial rates on ATP concentration. […]

SAOS 2 cells = assay: Inhibition of cell growth, MTT assay, SAOS 2; assay type: cell-based; conditions: Homo sapiens, SAOS-2, 144 h, four to six days incubation, read-out: SAOS2 IC50
Description: as §3, §4, §5

U2-OS cells = assay: Inhibition of cell growth, MTT assay, U2-OS; assay type: cell-based; conditions: Homo sapiens, U2OS, 144 h, four to six days incubation
Description: as §3, §4, §5

CDS1/CHK-2 (CDS1 CE4) = target: T4, CDS1/CHK-2 (CDS1 CE4) (Homo sapiens, UniProt O96017); assay: CDS1 assay (conditions identical to the CHK-1 assay); assay type: biochemical; conditions: 10 nM CDS1
T4 construct: CDS1 CE4 contains residues 209-502 including the kinase domain; 6xHis leader with thrombin site; first M absent from the expressed protein) (N); made in house; host or cells: E. coli
T4 sequence (O96017 209-502): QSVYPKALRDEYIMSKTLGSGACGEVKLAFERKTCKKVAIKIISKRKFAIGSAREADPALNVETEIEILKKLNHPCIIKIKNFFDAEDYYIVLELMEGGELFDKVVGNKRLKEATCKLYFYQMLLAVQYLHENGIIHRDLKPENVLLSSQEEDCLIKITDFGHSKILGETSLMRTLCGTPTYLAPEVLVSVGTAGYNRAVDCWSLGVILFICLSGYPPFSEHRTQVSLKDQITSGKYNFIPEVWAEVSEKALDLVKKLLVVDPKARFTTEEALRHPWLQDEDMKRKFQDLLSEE
Text: CDS1 Construct for Assay: CDS1 CE4 contains residues 209-502 including the kinase domain of human CDS1/CHK-2 (GenBank accession number AFO86904, Matsuoka et al., Science, 282, 1893-97 (1998)). It contains the amino acid sequence: […] at the N-terminus of residue 209. (The first M is not present in the expressed protein due to post-translational processing of the N-terminus.) The protein was expressed in E. coli and purified by conventional chromatographic techniques.
as §1
The CDS 1 assay was prepared under identical conditions to that of the CHK-1 assay, except with the use of 10 nM of CDS1.

Row | pKi (CHK-1 KH289) | pKi (CDK4/Cyclin D3 complex) | pKi [1] | melting point [°C] | pIC50 (HCT 116 cells) | pKi (CDK2/Cyclin A complex) | pIC50 (U2-OS cells) | pKi (CDS1/CHK-2 (CDS1 CE4)) | SMILES | pIC50 (SAOS 2 cells)
1 | 5.44 | 5.63 | 5.88 | – | – | – | – | – | ON=C1c2ccccc2-c2cc3[nH]cnc3cc21 (mixture of isomers) [Example A, 9(E/Z)-Hydroxyimino-3H-fluoreno[2,3-d]imidazole] | –
2 | 5.24 | 6.10 | 5.72 | 240 to 242 | – | – | – | – | Nc1nc2cc3c(cc2[nH]1)-c1ccccc1C3=NO (mixture of isomers) [Example B, 2-Amino-9(E/Z)-hydroxyimino-3H-fluoreno[2,3-d]imidazole] | –
3 | 6.24 | 6.67 | 5.83 | – | 4.98 | 6.17 | 4.74 | – | ON=C1c2ccccc2-c2cc3[nH]nnc3cc21 (mixture of isomers) [Example C, 9(E/Z)-Hydroxyimino-3H-fluoreno[2,3-d]-1,2,3-triazole] | 4.96
4 | 6.78 | 5.92 | – | – | – | – | – | 7.68 | ON=C1c2cc(I)ccc2-c2cc3[nH]nnc3cc21 (mixture of isomers) [Example D, 9(E/Z)-Hydroxyimino-7-iodo-3H-fluoreno[2,3-d]-1,2,3-triazole] | –
